Measured values published in PubChem BioAssay (NCI).
Several values for one entry are separate records, joined by “and”; a condition that tells them apart may be missing. Identical values can stand only once.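 A five-concentration, 48-hour dose response in 96-well plates underlies each endpoint, interpolated linearly between surrounding concentrations. Here, GI50 denotes the concentration required for 50% inhibition of growth. Definition used: TGI = concentration required for complete inhibition of growth.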

Assays:
Assay in all cases: growth of human tumour cells (NCI), 48 h
[1] = system: LOX IMVI melanoma
[2] = system: M14 melanoma
[3] = system: SNB-19 CNS
[4] = system: SF-268 CNS
[5] = system: NCI-H23 lung
[6] = system: TK-10 renal
[7] = system: NCI/ADR-RES ovarian
[8] = system: CAKI-1 renal
[9] = system: MDA-MB-435
[10] = system: HS 578T breast

Row | SMILES | GI50 [1] [µM] | TGI [1] | GI50 [2] [µM] | TGI [2] | GI50 [3] [µM] | TGI [3] | GI50 [4] [µM] | TGI [4] | GI50 [5] [µM] | TGI [5] | GI50 [6] [µM] | TGI [6] [µM] | GI50 [7] [µM] | TGI [7] | GI50 [8] [µM] | TGI [8] [µM] | GI50 [9] [µM] | TGI [9] | GI50 [10] [µM] | TGI [10] [µM]
1 | O=S(=O)(O)O.[NH-]C1CCCCC1[NH-].[Pt+2] (configuration not stated) | > 100 | > 100 µM | > 100 | > 100 µM | > 100 | > 100 µM | > 100 | > 100 µM | > 100 | > 100 µM | > 100 | > 100 | – | – | – | – | – | – | – | –
2 | Oc1ccccc1-c1nn(CNc2cccc(Cl)c2)c(=S)o1 | – | – | 35.8 | > 100 µM | > 100 | > 100 µM | 59.4 | > 100 µM | 22.8 | 71.8 µM | 13.1 | 86.3 | 0.371 | 40 µM | 65.4 | > 100 | 77.1 | > 100 µM | 69.1 | > 100
3 | Nc1nc(N)c(N=O)c(Nc2ccc(O)cc2)n1 | – | > 100 µM | – | – | – | > 100 µM | – | > 83.8 µM | – | > 100 µM | – | > 100 | – | > 50.4 µM | – | > 76.3 | – | > 100 µM | – | 58.8
4 | CCC[CH2][Sn]1([CH2]CCC)[O]C(=O)c2cc(I)cc(I)c2[O]1 | 0.8 | 2.39 µM | 1.66 | 3.17 µM | 1.27 | 2.55 µM | 1.29 | 2.89 µM | 1.18 | 2.9 µM | 1.25 | 2.52 | – | – | 0.637 | 2.15 | – | – | – | –
5 | Cc1[nH]c2ccccc2c1C1Cc2ccccc2N1C(=O)/C=C/C=C/c1ccccc1 (configuration not stated) | – | > 100 µM | – | > 100 µM | – | > 100 µM | – | – | – | > 100 µM | – | > 100 | – | – | – | > 100 | – | – | – | –
6 | [O-]c1c2c(nn1-c1ccccc1)c1ccccc1c[n+]2Cc1ccccc1 | – | > 100 µM | – | > 100 µM | – | > 100 µM | – | > 100 µM | – | > 100 µM | – | > 100 | – | – | – | – | – | – | – | –
7 | Cc1nc(Cl)nc(Cl)c1C | – | > 100 µM | – | > 100 µM | – | > 100 µM | – | > 100 µM | – | > 100 µM | – | > 100 | – | > 100 µM | – | – | – | > 100 µM | – | > 100
8 | C/C(=C\C(C)COCc1ccccc1)[C@H](COCc1ccccc1)OCc1ccccc1 (some centres not stated) | – | > 100 µM | – | > 100 µM | – | > 100 µM | – | > 100 µM | – | > 100 µM | – | > 100 | – | – | – | – | – | – | – | –
9 | COc1cc(/C=C2\[C@H]3c4c(c(OC)c(C)c(OC)c4OC)C[C@@H](C(=O)N2Cc2ccccc2)N3C(=O)OCC(C)C)c(OC)c(C)c1OC | – | > 100 µM | – | > 100 µM | – | > 100 µM | – | > 100 µM | – | > 100 µM | – | > 100 | – | – | – | > 100 | – | – | – | –
10 | COc1ccc2c(=O)c(C)c(-c3ccccc3)oc2c1CN(C)C | – | > 100 µM | – | > 100 µM | – | > 100 µM | – | > 100 µM | – | > 100 µM | – | > 100 | – | – | – | > 100 | – | – | – | –
11 | O=c1/c(=C/c2cccc([N+](=O)[O-])c2)sc2nc3ccccc3n12 | – | > 100 µM | – | > 100 µM | – | – | – | > 100 µM | – | > 100 µM | – | > 100 | – | – | – | – | – | – | – | –
12 | CCOC(C)C(/C=N/NC(N)=S)=NNC(N)=S (configuration not stated) | – | > 100 µM | – | – | – | > 100 µM | – | > 100 µM | – | > 100 µM | – | > 100 | – | – | – | > 100 | – | – | – | –
13 | COc1cc(/C=C2/C(=O)N(C(=O)OC(C)C)C(Cc3cc(OC)c(OC)c(C)c3OC)C(=O)N2Cc2ccccc2)c(OC)c(C)c1OC (configuration not stated) | – | > 100 µM | – | > 100 µM | – | – | – | > 100 µM | – | > 100 µM | – | > 100 | – | – | – | > 100 | – | – | – | –
14 | Cc1cc(O)cc2oc(=O)c3c(O)cc(O)cc3c12 | – | 48.1 µM | – | > 100 µM | – | 76 µM | – | 76.5 µM | – | 48 µM | – | > 100 | – | – | – | 90 | – | – | – | –
15 | Cc1c(Cl)ccc2c1NC(=O)C2(O)C(C(=O)c1ccccc1)c1ccccc1 (configuration not stated) | – | > 100 µM | – | > 100 µM | – | > 100 µM | – | > 100 µM | – | 42.2 µM | – | > 100 | – | – | – | > 100 | – | – | – | –
16 | CC(=O)N1N=C2/C(=C/c3ccccc3)CC(C)CC2C1c1ccccc1 (configuration not stated) | 13.9 | 29.9 µM | – | – | 14.5 | 30.1 µM | 14.8 | 30.6 µM | 14.4 | 28 µM | 19.7 | 44.9 | 12.5 | 28.8 µM | 19.1 | 41.8 | 11.2 | 27.7 µM | 15.4 | 34.6
17 | O=S1c2ccccc2N=C(c2ccc3ccccc3c2)CC1C1=CC=CCC1 (configuration not stated) | – | 30.8 µM | – | 35.6 µM | – | – | – | > 100 µM | – | 30.6 µM | – | 51.7 | – | – | – | 29.6 | – | – | – | –
18 | COc1ccc(C(=O)OCC2OC(n3cnc4c(=S)nc[nH]c43)C(OC(=O)c3ccc(OC)cc3)C2OC(=O)c2ccc(OC)cc2)cc1 (configuration not stated) | – | – | – | > 100 µM | – | > 100 µM | – | > 100 µM | – | > 100 µM | – | > 100 | – | – | – | > 100 | – | – | – | –
19 | CCCCCCCCCCCCCC(=O)O[C@H]1CC[C@H](NC(=O)[C@H](OC)[C@H](O)[C@@H](O)[C@H](O)/C=C/C(C)C)C(=O)NC1 | – | 9.4 µM and 1.15 µM | – | 0.345 µM and 0.556 µM and 0.129 µM | – | 51.2 µM and 25.9 µM | – | 18.8 µM and 22.5 µM | – | 4.77 µM and 0.5 µM | – | – | 3.58 | 51.2 µM and 26.3 µM | – | – | 0.00789 | 51.2 µM and 18.2 µM | 0.0112 | –
20 | COC(=O)C1=C2CCC(=O)[C@@]2(C)C(OC(C)=O)C=CC1 (some centres not stated) | – | – | – | > 100 µM | – | – | – | – | – | > 100 µM | – | > 100 | – | – | – | > 100 | – | – | – | –
21 | CC(=O)[CH-]C(=O)c1ccccc1.CC(=O)[CH-]C(=O)c1ccccc1.CC[O-].CC[O-].[Zr+4] | > 100 | > 100 µM | > 100 | > 100 µM | > 100 | > 100 µM | > 100 | > 100 µM | > 100 | > 100 µM | – | – | – | – | 62.8 | > 100 | – | – | – | –
22 | O=S(=O)(/C=C/c1ccc(Cl)cc1Cl)Cc1ccccc1CS(=O)(=O)/C=C/c1ccc(Cl)cc1Cl | – | > 100 µM | – | > 100 µM | – | > 100 µM | – | > 100 µM | – | > 100 µM | – | > 100 | – | – | – | > 100 | – | – | – | –
23 | CC1CC2(C)ON=C(c3ccccc3)N2c2ccccc2S1 (configuration not stated) | 22 | 50.1 µM | 31.7 | 83.2 µM | 53.9 | – | 36.3 | – | 28.1 | 97.5 µM | – | – | 17.6 | 46.6 µM | 78.6 | – | 26 | 93.3 µM | 46.2 | –
